From PMC3578765 (PLoS Neglected Tropical Diseases, 2013) come the findings set out here.

Series [1] has as its system DENV1 (Den1 BR/90) infection in Huh-7.5. Briefly: image-based dengue HT/HCA, 10-pt dose-response hit confirmation, DENV1. It counts as cell-based. To be noted: Dengue virus, DENV1, Huh7.5; Huh-7.5, M.O.I. 0.5, 96 hrs; read-out: EC50 DENV1. As to the method: (§1) An immunofluorescence assay (IFA) used to detect dengue infection was optimized for the dengue HT/HCA. Briefly, cells were fixed with 4% (w/v) paraformaldehyde (PFA) for 20 min at room temperature (Rm T). PFA-fixed cells were treated with 0.25% (v/v) Triton-X for 20 min at Rm T. DENV-infected cells were detected by probing with 4G2 mAb prepared in blocking buffer: DPBS containing 5% FBS for 30 min at 37°C, followed by AlexaFluor-conjugated goat anti-mouse IgG (H+L) (Invitrogen Molecular Probes, USA) prepared in blocking buffer for 30 min at 37°C. Cell nuclei counterstained with 5 µg/mL 4′,6-diamidino-2-phenylindole (DAPI, Sigma-Aldrich, USA). Two washing cycles of DPBS was done after each step of the IFA. After the final washing, digital images were acquired using a high-throughput confocal fluorescence imaging system (Evotec Technologies High-Throughput Cell Analyzer Opera, Perkin Elmer, USA). The digital images were taken from 3 different fields of each well at 20× magnification.
(§2) Acquired images were analyzed using our in-house developed image-mining platform (IM). This platform is designed to do high-content screening and directly access the database of images that were sequentially analyzed with specially designed algorithms developed as a customized plug-in to the IM platform. The results of all the analyses were stored in a centralized database. […] One channel (DAPI-channel) captures the signal emitted by DAPI-stained nuclei at 450 nm, while the other channel (A488-channel) captures the signal emitted by the AlexaFluor 488 dye bound to the dengue E protein-antibody complexes confined in the cytoplasm of dengue-infected cells at 540 nm. To define the percentage of dengue-infected cells and, conversely the non-infected cells, a modified watershed method was applied. Compared to the original watershed algorithm that uses the morphological gradient image, a weighted gradient image is used for the topographic surface, whose weights are defined as the ridge values computed from the eigen values of the original image. The percentage of non-infected cells, which is also defined as the percent inhibition or percent activity, is derived by using the formula: [1−(A488-positive cells/total cells)]×100%.
(§3) The BioFocus kinase inhibitor library were screened against DENV1, DEN2, DENV3 and DENV4 at 10 µM in 0.5% (v/v) DMSO. MOCK-infected Huh-7.5 and IFN-α2A (500 U/mL) were used as positive controls, and the 0.5% DMSO vehicle was used as negative control. Four sets of 15 384-well plates (13 plates designated for test compounds and 2 plates designated for DMSO vehicle control) were used for the primary screening of the BioFocus kinase inhibitor library against each dengue serotype. Each of the 4,000 compounds in the library was tested in single wells. For data normalization and quality control of the screening, each test compound plate contained 16 replicates of the positive and negative controls. After dispensing the test compounds IFN-α2A and DMSO vehicle in the 384-well plates, Huh-7.5 was mixed with DENV1, DENV2, DENV3, or DENV4 to achieve a M.O.I. of 0.5 and dispensed at 5×10^3 cells/well using the Thermo Scientific WellMate automated liquid dispenser. For the MOCK-infected Huh-7.5, the cells were mixed with VM and dispensed under the same conditions as previously stated. Virus infection in the presence of the compounds proceeded at 37°C, 5% CO2 for 96 hrs. Compound activity based on percent inhibition and cell toxicity was assessed by IFA and IM analysis as described above. Scatter-plot distribution of the entire screening was generated using TIBCO Spotfire 4.5.0 (TIBCO Software Inc., Somerville, MA).
(§4) The calculated activity was normalized to a percent inhibition (PI) based on the MOCK-infected cells (100% activity, or zero infection) and dengue-infected cells (0% activity, or maximum measured infection percentage) controls according to the formula: [drawing 1] where: PImeasured - percent inhibition of test compound […]

The test system of series [2] is DENV2 (BR DEN2 01-01) infection in Huh-7.5. Briefly: image-based dengue HT/HCA, 10-pt dose-response hit confirmation, DENV2. It is filed as cell-based. To be noted: Dengue virus, DENV2, Huh7.5; Huh-7.5, M.O.I. 0.5, 96 hrs; read-out: EC50 DENV2. On the procedure: as §1, §2, §3, §4
Series [3] relates to DENV3 (BR DEN3 290-02) infection in Huh-7.5. Description: image-based dengue HT/HCA, 10-pt dose-response hit confirmation, DENV3. It counts as cell-based. To be noted: Dengue virus, DENV3, Huh7.5; Huh-7.5, M.O.I. 0.5, 96 hrs; read-out: EC50 DENV3. As to the method:
as §1, §2, §3, §4

Series [4] has as its system DENV4 (DEN4 TVP-360) infection in Huh-7.5. Description: image-based dengue HT/HCA, 10-pt dose-response hit confirmation, DENV4. It counts as cell-based. To be noted: Dengue virus, DENV4, Huh7.5; Huh-7.5, M.O.I. 0.5, 96 hrs; read-out: EC50 DENV4. On the procedure: as §1, §2, §3, §4
Series [5] is described as follows: compound toxicity, resazurin reduction assay in uninfected Huh-7.5. It counts as cell-based. To be noted: human, uninfected Huh-7.5 cells, Huh-7.5 without viral infection, 10-pt DRC. On the procedure:
The hits identified from the primary screening were also tested at 10 µM against CHIKV-118-GFP infection in HuH-7 cells and evaluated by resazurin reduction assay (RRA). Resazurin (7-Hydroxy-3H-phenoxazin-3-one 10-oxide) is reduced to the red fluorescent resorufin by redox enzymes produced by viable cells, and is a good indication of metabolic capacity, and by extension cell viability. The amount of converted resorufin was measured as relative fluorescence readout (RFU) at excitation/emission of 531/572 nm using a fluorescence spectrophotometer (Victor^3 V Spectrophotometer, Perkin Elmer, USA). Briefly, cells were inoculated with CHIKV-118-GFP at an M.O.I. of 0.5 and seeded in 384-well plates containing reference and primary hit compounds and incubated under humidified conditions for 72 hrs at 37°C. Resazurin solution was added to a final concentration of 10 µM and further incubated for another 12 hrs prior to measurement of RFU. The percent activity of the compounds, reflected by the percent cell viability, was quantified by normalizing against the RFUs of MOCK-infected cells and CHIKV-118-GFP-infected cells. Compounds resulting in normalized RFU ≥70% were considered as positive hits for anti-CHIKV activity.
To confirm the compound activity against dengue viruses, the selected hits from the primary screening were tested in a 10-pt. DRC (2-fold serial dilution from 50 µM) using the same assay described for the dengue HT/HCA. Each concentration of the hit compounds was tested in duplicate wells. Data generated from image analysis of the 10-pt. DRC was plotted and analyzed using the non-linear regression formula: log (inhibitor) vs. response – […] (4 parameters) in GraphPad Prism 5.04. […] Compound toxicity was determined by testing the hit compounds in a 10-pt. DRC against Huh-7.5 in the absence of viral infection and measuring the cell viability using resazurin reduction assay as described above. […] Confirmed hits were selected based on their Selectivity Index (SI), a dimensionless value that indicates the magnitude between cytotoxic concentration and effective concentration, and is calculated as: SI = CC50/EC50.
A general note: Resazurin is reduced to fluorescent resorufin, in cell work by metabolically active cells.

For series [6], the system named is DENV1, DENV2, DENV3 and DENV4 in Huh-7.5. Briefly: plaque reduction assay. It is filed as cell-based, Dengue virus. To be noted: 25 µM, Huh-7.5, 30 pfu per well, 7 days. As to the method:
Figure 5 Plaque reduction assay. Huh-7.5 cells grown in 24-well tissue culture plate were inoculated with 30 pfu DENV1, DENV2, DENV3 and DENV4 per well and incubated for 7 days in the presence of compound CND1203 at various concentrations. MOCK-infected wells were inoculated with VM only.
On the technique in general: Plaque reduction counts the foci of infection that form in a cell layer.

The subject of series [7] is dengue virus infection (M.O.I. 5) in Huh-7.5. Briefly: time-of-addition assay. It is filed as cell-based. To be noted: 25 µM added at −2, 0, 0.5, 1, 2, 4 hpi, M.O.I. 5, data not shown. As to the method:
Time-of-addition assay, a strategy to determine the stage of inhibition during the viral infection cycle, has been used to characterize the mode of action of some inhibitors of dengue viral entry (NITD Compound 6), viral replication (NITD-982) and early translation (NITD-2636), [47], [53]. The inhibitor is added at different time points during viral infection and monitored for expression of the viral proteins, replication of the genome or production of infectious progeny virions. […] Compound CND1203 was used for the time-of-addition assay, adding 25 µM at different time points (−2 hpi, 0 hpi, 0.5 hpi, 1 hpi, 2 hpi, 4 hpi) of the dengue virus infection (M.O.I. 5) in Huh-7.5. […] Aminothiazole-based compounds have previously been implicated in the inhibition of HCV replication by binding to an allosteric site on the viral polymerase. However, the structure of these active anti-HCV compounds differ from the 2-aminothiazole hit compounds reported in this study in terms of the substitutions on the scaffold. As a consequence, it is unlikely that our hit compounds interact with the viral polymerase.

Series [8] has as its system DENV1, DENV2, DENV3 and DENV4 infection in Huh-7.5. Description: image-based dengue HT/HCA, all four serotypes (primary screening and overall activity). It is filed as cell-based, Dengue virus. As to the method:
as §1
Acquired images were analyzed using our in-house developed image-mining platform (IM). This platform is designed to do high-content screening and directly access the database of images that were sequentially analyzed with specially designed algorithms developed as a customized plug-in to the IM platform. The results of all the analyses were stored in a centralized database. […]
The BioFocus kinase inhibitor library were screened against DENV1, DEN2, DENV3 and DENV4 at 10 µM in 0.5% (v/v) DMSO. […] Compound activity based on percent inhibition and cell toxicity was assessed by IFA and IM analysis as described above. […]
as §4

Each structure is given as a SMILES string. “Also recorded” adds a separate entry of the source.

As a reminder, the EC50 is the concentration at which the effect is half-maximal. Usually CC50 stands for the concentration giving 50% cytotoxicity. As for `NC(c1csc(Nc2ncccn2)n1)c1ccccc1Cl` (centres unmarked) [CND1203], the EC50 in series [1] came to 1.7 µM; in series [2], 4.1 µM; in series [3] it was 2.3 µM; in series [4] it was 5 µM. The same compound had a CC50 at 72 h in series [5] above 100 µM. In series [6], the “formation of dengue virus plaques” value is recorded as “blocked the formation of dengue virus plaques”. For the same compound, the “inhibition of dengue infection in time-of-addition assay” value in series [7] is reported as “none of the treatments inhibited dengue infection”. Further, the “antiviral activity against all four dengue serotypes” value in series [8] was “strong antiviral activities against all four dengue serotypes; also recorded: strong antiviral activity against all 4 dengue serotypes”.
